In patent publication US20220370453A1 (Storm Therapeutics Ltd, priority 2019, published 2022):

Assays:
BCDIN3D [1] = molecular target: T1, BCDIN3D (Homo sapiens, UniProt Q7Z5W3); experiment: BCDIN3D IC50 RFMS (RapidFire) assay with mini-helix; format: biochemical; settings: mini-helix 0.2 μM and SAM 6 μM as substrates, 25 nM enzyme, 1 hr at 37° C.
T1 sequence (Q7Z5W3 1-292): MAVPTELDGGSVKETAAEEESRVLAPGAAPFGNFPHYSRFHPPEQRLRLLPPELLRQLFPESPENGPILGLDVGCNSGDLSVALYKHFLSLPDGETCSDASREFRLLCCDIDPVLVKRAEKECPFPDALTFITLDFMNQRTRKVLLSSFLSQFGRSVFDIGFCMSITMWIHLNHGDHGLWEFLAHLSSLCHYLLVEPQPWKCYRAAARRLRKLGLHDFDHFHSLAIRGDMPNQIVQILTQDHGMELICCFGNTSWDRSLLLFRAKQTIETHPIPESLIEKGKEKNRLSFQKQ
Method: The following General Methods details the assay conditions for the Biological assays.
BCDIN3D IC50 RFMS Assay with Mini-Helix
The enzymatic assay was performed in a 384-well polypropylene plate in assay buffer with 25 mM Tris pH 8.0, 10 mM DTT, 1 mM EDTA, 0.03% BSA in a final assay volume of 20 μL. The enzyme with a final concentration of 25 nM was pre-incubated with the respective compound at 1% DMSO final assay concentration over 10 min at room temperature. The reaction was initiated by addition of 0.2 μM final assay concentration of mini-helix and 6 μM final concentration of SAM as substrates. After a 1 hr incubation at 37° C., the reaction was terminated with 40 μL of stop solution of 7.5% trichloroactetic acid in water containing 112.5 nM D4-SAH and 30 nM ^13C10-SAH used as internal standards. The SAH product concentrations as well as both internal standards were analyzed by a RapidFire High Throughput Mass Spectrometry System (Agilent Technologies, Santa Clara, Calif.) using an AP14000 triple quadrupole mass spectrometer (AB Sciex Framingham, Mass.).

BCDIN3D [2] = molecular target: T1, BCDIN3D; experiment: BCDIN3D InCellPulse thermal stability assay in transfected A549 cells; format: cell-based; settings: A549 cells transiently transfected with ePL-BCDIN3D, 1 h pre-incubation, heat shock 58° C. 15 min
Method: BCDIN3D InCellPulse™ Assay
The thermal stability assay was performed with lipofectamine 3000 transiently transfected A549 using the plasmid pICP-ePL-BCDIN3 Da. This plasmid encodes for BCDIN3D N-terminally fused to a Prolabel (ePL), complementing a split β-Galactosidase Enzyme System InCELL Pulse Technology (InCELL Hunter Detection Kit, DiscoverX/Eurofins, cat: 96-0079L). 20 μl A549 cells (1500 cell/well) were added with a multidrop device to compounds to a final DMSO concentration of 0.6% in 384-well polypropylene plate format in IMDM medium and pre-incubated with the compounds for 1 h at 37° C. and 5% CO2. Subsequently, a heat shock was applied to the entire sealed plate in a 58° C. water bath for 15 min. The plates were cooled to RT, spun down and 25 μl/well of EA Detection Solution at 3.3× (InCELL Hunter Detection Kit) was added per well. 21 μl of the mixture was added to a black 384-well measurement plate (Corning, PS, black, Flat Bottom, #3575), mix for 30 minutes on a plate shaker at RT. Finally, the luminescence was measured with a Perkin Elmer EnVision with 0.2 s measurement time in luminescence mode.

Row | Compound | IC50 (BCDIN3D [1]) | IC50 (BCDIN3D [2])
1 | CNc1nc(NC[C@@](C)(N)c2ccccc2)nc2c1cnn2C (single isomer, unassigned) [Compound 7.10] | 7.65 µM | 10.8 µM
2 | Cn1ncc2c(Nc3ccc(C(F)(F)F)nc3)nc(NC[C@](C)(N)c3ccccc3)nc21 (single isomer, unassigned) [Compound 7.13] | 2.62 µM | 6 µM
3 | Cn1ncc2c(Nc3ccc(C(F)(F)F)nc3)nc(NCC(C)(N)c3ccccc3)nc21 (single isomer, unassigned) [Compound 7.15] | 0.0381 µM | 0.133 µM
4 | [2H]C([2H])([2H])n1ncc2c(NC(C)(C)C)nc(NCC(N)c3ccccc3F)nc21 (stereo in doubt) [Compound 7.17, N6-[(2S)-2-amino-2-(2-fluorophenyl)ethyl]-N4-tert-butyl-1-(trideuteriomethyl)pyrazolo[3,4-d]pyrimidine-4,6-diamine] | 0.981 µM | 2.14 µM
5 | Cn1ncc2c(Nc3ccc(C(F)(F)F)cc3)nc(NCCN)nc21 [Compound 1.01, N6-(2-Aminoethyl)-1-methyl-N4-[4-(trifluoromethyl)phenyl]pyrazolo[3,4-d]pyrimidine-4,6-diamine] | 1.98 µM | 3.33 µM
6 | Cn1ncc2c(Nc3ccc(Oc4ccccc4)cc3)nc(NCCN)nc21 [Compound 1.03, N6-(2-aminoethyl)-1-methyl-N4-(4-phenoxyphenyl)-1H-pyrazolo[3,4-d]pyrimidine-4,6-diamine] | 0.975 µM | 0.918 µM
7 | Cn1ncc2c(Nc3cccc(Oc4ccccc4)c3)nc(NCCN)nc21 [Compound 1.04, N6-(2-aminoethyl)-1-methyl-N4-(3-phenoxyphenyl)-1H-pyrazolo[3,4-d]pyrimidine-4,6-diamine] | 1.26 µM | 1.53 µM
8 | Cn1ncc2c(NCc3ccc(-c4ccccc4)cc3)nc(NCCN)nc21 [Compound 1.05, N6-(2-aminoethyl)-1-methyl-N4-[(4-phenylphenyl)methyl]pyrazolo[3,4-d]pyrimidine-4,6-diamine] | 2.21 µM | 2.97 µM
9 | COc1ccc(C(C)Nc2nc(NCCN)nc3c2cnn3C)cc1Cl (centres unmarked) [Compound 1.06, N6-(2-aminoethyl)-N4-[1-(3-chloro-4-methoxyphenyl)ethyl]-1-methyl-1H-pyrazolo[3,4-d]pyrimidine-4,6-diamine] | 1.68 µM | 2.93 µM
10 | COc1cccc(-c2cccc(Nc3nc(NCCN)nc4c3cnn4C)c2)c1 [Compound 1.11, N6-(2-aminoethyl)-N4-{3′-methoxy-[1,1′-biphenyl]-3-yl}-1-methyl-1H-pyrazolo[3,4-d]pyrimidine-4,6-diamine] | 0.762 µM | 1.06 µM
11 | COc1cccc(-c2ccc(Nc3nc(NCCN)nc4c3cnn4C)cc2)c1 [Compound 1.14, N6-(2-aminoethyl)-N4-{3′-methoxy-[1,1′-biphenyl]-4-yl}-1-methyl-1H-pyrazolo[3,4-d]pyrimidine-4,6-diamine] | 0.568 µM | 0.754 µM
12 | COc1ccc(-c2cccc(Nc3nc(NCCN)nc4c3cnn4C)c2)cc1 [Compound 1.15, N6-(2-aminoethyl)-N4-{4′-methoxy-[1,1′-biphenyl]-3-yl}-1-methyl-1H-pyrazolo[3,4-d]pyrimidine-4,6-diamine] | 0.541 µM | 1.02 µM
13 | Cn1ncc2c(Nc3cccc(-c4ccccc4)c3)nc(NCCN)nc21 [Compound 1.16, N6-(2-aminoethyl)-N4-{[1,1′-biphenyl]-3-yl}-1-methyl-1H-pyrazolo[3,4-d]pyrimidine-4,6-diamine] | 0.744 µM | 1.7 µM
14 | COc1ccc(Nc2nc(NCCN)nc3c2cnn3C)cc1Cl [Compound 1.21, N6-(2-aminoethyl)-N4-(3-chloro-4-methoxyphenyl)-1-methyl-1H-pyrazolo[3,4-d]pyrimidine-4,6-diamine] | 1.15 µM | 8.07 µM
15 | Cn1ncc2c(NCc3cccc(C(F)(F)F)c3)nc(NCCN)nc21 [Compound 1.23, N6-(2-aminoethyl)-1-methyl-N4-{[3-(trifluoromethyl)phenyl]methyl}-1H-pyrazolo[3,4-d]pyrimidine-4,6-diamine] | 7.72 µM | 8.47 µM
16 | COc1ccc(CNc2nc(NCCN)nc3c2cnn3C)c(OC)c1 [Compound 1.24, N6-(2-aminoethyl)-N4-[(2,4-dimethoxyphenyl)methyl]-1-methyl-1H-pyrazolo[3,4-d]pyrimidine-4,6-diamine] | 2.25 µM | 10.6 µM
17 | COc1ccc(CNc2nc(NCCN)nc3c2cnn3C)cc1Cl [Compound 1.25, N6-(2-aminoethyl)-N4-[(3-chloro-4-methoxyphenyl)methyl]-1methyl-1H-pyrazolo[3,4-d]pyrimidine-4,6-diamine] | 1.66 µM | 7.72 µM
18 | COc1ccc(CNc2nc(NCC(C)(C)N)nc3c2cnn3C)cc1Cl [Compound 1.26, N6-(2-amino-2-methylpropyl)-N4-[(3-chloro-4-methoxyphenyl)methyl]-1-methyl-1H-pyrazolo[3,4-d]pyrimidine-4,6-diamine] | 0.744 µM | 1.87 µM
19 | COc1ccc(CNc2nc(NCC(C)(C)N)nc3c2cnn3C)cc1 [Compound 1.27, N6-(2-amino-2-methylpropyl)-N4-[(4-methoxyphenyl)methyl]-1-methyl-1H-pyrazolo[3,4-d]pyrimidine-4,6-diamine] | 2.88 µM | 5.34 µM
20 | Cn1ncc2c(NCc3ccc(-c4ccccc4)cc3)nc(NCC(C)(C)N)nc21 [Compound 1.28, N6-(2-amino-2-methylpropyl)-N4-({[1,1′-biphenyl]-4-yl}methyl)-1-methyl-1H-pyrazolo[3,4-d]pyrimidine-4,6-diamine] | 1.11 µM | 0.765 µM
21 | COc1ccc(CNc2nc(NCC(C)(C)N)nc3c2c(C)nn3C)cc1Cl [Compound 1.30, N6-(2-amino-2-methylpropyl)-N4-[(3-chloro-4-methoxyphenyl)methyl]-1,3-dimethyl-1H-pyrazolo[3,4-d]pyrimidine-4,6-diamine] | 1.85 µM | 3.79 µM
22 | Cc1nn(C)c2nc(NCC(C)(C)N)nc(NCc3ccc(-c4ccccc4)cc3)c12 [Compound 1.31, N6-(2-amino-2-methylpropyl)-N4-({[1,1′-biphenyl]-4-yl}methyl)-1,3-dimethyl-1H-pyrazolo[3,4-d]pyrimidine-4,6-diamine] | 0.95 µM | 0.814 µM
23 | Cc1ccc(CNc2nc(N[C@@H]3CCCC[C@H]3N)nc3c2cnn3C)cc1Cl [Compound 7.03, 6-N-[(1R,2R)-2-aminocyclohexyl]-4-N-[(3-chloro-4-methylphenyl)methyl]-1-methylpyrazolo[3,4-d]pyrimidine-4,6-diamine] | 8.58 µM | –
24 | Cn1ncc2c(NC(C)(C)C)nc(NC[C@H](N)c3ccccc3F)nc21 [Compound 7.12, N6-[(2R)-2-amino-2-(2-fluorophenyl)ethyl]-N4-tert-butyl-1-methyl-pyrazolo[3,4-d]pyrimidine-4,6-diamine] | – | 2.15 µM
25 | Cn1ncc2c(NC(C)(C)C)nc(NC[C@H](N)c3ccc(F)c(F)c3)nc21 [Compound 7.20, N6-[(2R)-2-amino-2-(3,4-difluorophenyl)ethyl]-N4-tert-butyl-1-methyl-1H-pyrazolo[3,4-d]pyrimidine-4,6-diamine] | 0.8 µM | –
26 | Cn1ncc2c(NC(C)(C)C)nc(NC[C@@H](N)c3ccc(F)c(F)c3)nc21 [Compound 7.21, N6-[(2S)-2-amino-2-(3,4-difluorophenyl)ethyl]-N4-tert-butyl-1-methyl-1H-pyrazolo[3,4-d]pyrimidine-4,6-diamine] | 0.00462 µM | –
27 | Cn1ncc2c(NC(C)(C)C)nc(NC[C@H](N)C3CCCCC3)nc21 [Compound 7.22, N6-[(2R)-2-amino-2-cyclohexylethyl]-N4-tert-butyl-1-methyl-1H-pyrazolo[3,4-d]pyrimidine-4,6-diamine] | 0.8 µM | –
28 | Cn1ncc2c(NC(C)(C)C)nc(NC[C@@H](N)C3CCCCC3)nc21 [Compound 7.23, N6-[(2S)-2-amino-2-cyclohexylethyl]-N4-tert-butyl-1-methyl-1H-pyrazolo[3,4-d]pyrimidine-4,6-diamine] | 5.17 µM | –
